Assays:
A549 (an adenocarcinoma) = assay: Induced-tumor NOD/SCID mouse model, A549; assay type: in vivo, NOD/SCID mice
Method: In another experiment, NOD/SCID mice, (NOD.CB17-Prkdcscid/J) were treated over a time course with 60 mg/kg of MT103 or a sham treatment, and a different lung cancer cell line was used, A549 (an adenocarcinoma), instead of NCI-H226 (a squamous carcinoma).

[1] = test system: NCI-H226 human non-small cell lung cancer cell line; assay: MTS assay; assay type: cell-based
Method: Methods The MTS assay was employed in the evaluation of these compounds. The cells were harvested, centrifuged to remove the medium, and suspended in fresh complete medium. Samples were taken to determine cell density. The cell count was determined with a Coulter Model Z cell counter and viability was measured with propidium iodine staining call by analysis on Coulter EPICS flow cytometer. The cell line was plated at 5×10^3 cells per well in complete medium. On the following day, the cells were closed with the dilutions of the compound. The plates were analyzed on Day for after initiation of treatment.
The cell line was propagated using standard tissue culture procedures and seeded in microtiter plates prior to dosing. Control groups included a mock treatment, media control, and a positive control (doxorubicin, 1 μM). For each concentration level, eight replicates were treated. The cell line was propagated under sterile conditions at 37° C. in 5% CO2 and 95% humidity. MT103 was stored at 4° C. until dissolved and diluted in complete medium.
Anti-cellular effects of the compound were assessed with the MTS dye conversion assay. MTS was purchased as a single solution, and stored at −20° C. […] The absorbance of formazan in each monolayer was measured at 490 nm on a Coulter microplate reader at four hours after addition of the MTS.

MCF7, NCI-H460, SF-268 = assay: NCI three cell-line test, all three cell lines; assay type: cell-based, human; details: one concentration tested (1×10^−4 Molar)
Method: (§1) The testing in this Example was performed by NCI, as per their 3-cell line panel test. The results are reported as the percent of the growth of the treated cells compared to the untreated control cells. The criterion for being an effective compound and for being subjected to further testing is that the tested compound reduce the growth of any one of the three cell lines to approximately 32% or less.
(§2) The methods for conducting the test are described below in Example 3, except that the cells were exposed to a single concentration of MT103, at 1×10^−4 Molar, and colorimetric determinations were made with alamar blue (Biotechniques 21(5):780-782 (1996)).
Methodology: The NCI conducted a test of the MT103 drug against 60 human cell lines, with a minimum of five concentrations of MT103 at 10-fold dilutions. […]
(§3) Following drug addition, the plates were incubated for an additional 48 h at 37° C., 5% CO2, 95% air, and 100% relative humidity. […] Bound stain was subsequently solubilized with 10 mM trizma base, and the absorbance was read on an automated plate reader at a wavelength of 515 nm. […] Using the seven absorbance measurements (time zero, (Tz), control growth, (C), and test growth in the presence of drug at the five concentration levels (Ti)), the percentage growth was calculated at each of the drug concentrations levels. Percentage growth inhibition was calculated as: […]

[2] = test system: NCI-H226 squamous carcinoma; assay: Induced-tumor NOD/SCID mouse model, comparison to cisplatin (Example 8); assay type: in vivo, NOD/SCID mice
Method: A standard induced-tumor NOD/SCID mouse model was used to perform this investigation, with the mouse model being based on protocols for human xenograft systems developed at the National Cancer Institute. H226 cell cancer tumors were induced in NOD/SCID mice; tumors at sizes approximately 100 mm^3 were treated with 30 mg/kg MT103 or a control containing only vehicle (2.5% DMSO in distilled water) administered in intraperitoneal injections every other day for two weeks.
This experiment provides in vivo test data showing that the MT103 family of compounds are effective anti-cancer agents. […] MT103 was tested at three dose levels (60, 120, and 240 mg/kg). Experiments were performed as described in Example 7, NOD/SCID mice, (NOD.CB17-Prkdcscid/J) except that tumors were treated with: one of three doses of MT103 or Cisplatin or sham for 3 intraperitoneal injections (one every 4 days) in a 2-cycle 56-day test that was extended to another cycle to 86 days, as reflected in FIG. 5. Tumor volumes were measured every other day.

[3] = test system: MCF7 Cell line (Breast Cancer); assay: NCI three cell-line test; assay type: cell-based, human; details: 1(10^−4) Molar in growth medium, percent of growth of untreated control cells
Method: as §1, §2
(§4) Methodology: The NCI conducted a test of the MT103 drug against 60 human cell lines, with a minimum of five concentrations of MT103 at 10-fold dilutions. A 48 hour continuous drug exposure was used, and a sulforhodamine B (SRB) protein assay was used to estimate cell viability and growth. The human tumor cell lines of the cancer screening panel were grown in RPMI 1640 medium containing 5% fetal bovine serum and 2 mM L-glutamine. Cells were inoculated into 96 well microtiter plates in 100 μL at plating densities ranging from 5,000 to 40,000 cells/well depending on the doubling time of individual cell lines. After cell inoculation, the microtiter plates are incubated at 37° C., 5% CO2, 95% air, and 100% relative humidity for 24 h prior to addition of experimental drugs. […]
as §3

[4] = test system: NCI-H460 Cell Line (Non-Small cell Lung); assay: NCI three cell-line test; assay type: cell-based, human; details: 1(10^−4) Molar in growth medium, percent of growth of untreated control cells
Method: as §1, §2, §4, §3

[5] = test system: SF-268 Cell Line (Central Nervous System); assay: NCI three cell-line test; assay type: cell-based, human; details: 1(10^−4) Molar in growth medium, percent of growth of untreated control cells
Method: as §1, §2, §4, §3

CC1(C)C2CC[C@@]1(CS(=O)(=O)N(C1CCCCC1)C1CCCCC1)C(O)C2 (stereo partly drawn) [MT103]
onset of tumor growth (A549 (an adenocarcinoma); 60 mg/kg versus sham): delayed onset of tumor growth | tumor size versus control (A549 (an adenocarcinoma); 60 mg/kg, t=30 days): significantly smaller than the control groups | GI50 [1]: 66 µM | growth of all three cell lines (MCF7, NCI-H460, SF-268): ≤ 16% | blood counts and electrolytes ([2]; 120 mg/kg versus control): no differences in blood counts and electrolytes | organ appearance ([2]; 120 mg/kg versus control): no observable differences in organ appearance | improvement compared to cisplatin ([2]; 120 mg/kg, among the range of doses tested): most improvement compared to cisplatin | mean tumor growth ([2]; 60, 120, 240 mg/kg, 3 intraperitoneal injections (one every 4 days) per cycle, p=0.046, FIG. 5): mean tumor growth slowed | effect in comparison to cisplatin ([2]; depending upon the dosages administered (60, 120, 240 mg/kg)): comparable or superior effect | Growth, Percentage [3]: 0% | Growth, Percentage [4]: 16% | Growth, Percentage [5]: 14%
